Values quoted from earlier work, collected in publication PMC8492600 (Cell Systems, 2021).

Columns and labels:
[1] = biological target: HLA-A*02:01 (Homo sapiens, UniProt P04439, D140Y/D185E/D98H/E176V/E277Q/G131W/G231S/I119V/I121R/I166T/I218V/L300P/L318F/N151K/N90K/P208A/P217A/Q86G/Q94H/R138H/R169H/T345S)
[2] = biological target: HLA-B*40:01 (Homo sapiens, UniProt P01889, A65T/A93T/A95T/D138N/D98Y/E176V/E69K/N87E/Q56L/Q94N/R180L/S121R/S35A/S48T/T167S/V36M/W171L/Y33H/Y91S)

Row | Sequence | binding of the mutated epitope to HLA-A*02:01 [1] | binding of the mutated epitope to HLA-B*40:01 [2]
1 | GFMWLSYFI | lose binding | –
2 | MKVTPSGTWL | – | lose binding
